Results published in patent US8420836B2, “NFAT signal inhibitor and hair-growing agent” (Kao Corporation, priority 2008, dated 2013).
“Also recorded” adds a separate entry of the source.

Assays:
NFAT signal = NFAT signal inhibitory effect: pNFAT-Luc luciferase reporter assay with ionomycin stimulation; format: cell-based, human; conditions: HEK293 cells transfected with pNFAT-Luc; 1 μM ionomycin; assay after 8 hours; FIG. 4
Protocol: (1) Materials and Methods for Evaluation System
In this evaluation system, human kidney (HEK293) cells were purchased from ATCC (American Type Culture Collection) and used. HEK293 cells were cultured in DMEM (High glucose, 10% heat-inactivated FBS) under the conditions of 37° C. and 5% CO2.
In this evaluation system, HEK293 cells transfected with a plasmid having firefly luciferase introduced into the downstream of the NFAT-binding sequence, pNFAT-Luc (Stratagene), were used. More specifically, pNFAT-Luc (Stratagene), in which firefly luciferase gene was introduced in the downstream of 4 copies of the NFAT-binding sequence, was transfected into HEK293 cells for an evaluation of the NFAT transcription activity. Furthermore, for the purpose of eliminating fluctuation due to the transfection efficiency, pRL-CMV (Promega) having Renilla luciferase introduced in the downstream of CMV promoter, was simultaneously transfected so as to correct for the signal derived from firefly luciferase.
Transfection was carried out using LipofectAMINE 2000 reagent (Invitrogen) according to the manual. The medium was exchanged eight hours after the transfection, and the system was incubated overnight. Thereafter, the component A, component B and component C obtained in Example 1, and the deacylation product of the component A prepared in Example 3 were added thereto, and further after one hour, 1 μM ionoinycin was added thereto. After 8 hours, a luciferase reporter assay was carried out.
Luciferase Reporter Assay
The luciferase reporter assay was carried out using Dual-Glo Luciferase Assay System (Promega) according to the manual. That is, the medium was removed, and then Dual-Glo luciferase reagent which had been diluted two times with PBS, was added thereto. The system was stirred, and after 20 minutes, the firefly luciferase activity was measured. Thereafter, an equal amount of Dual-Glo Stop&Glo reagent was added to the system, the mixture was stirred, and then the Renilla luciferase activity was measured. The luciferase activity measurement was carried out using MiniLumat LB 9506 (EG&G Berthold), and the amount of luminescence by luciferase was quantitatively detected. For both luciferases, the duration for luciferase activity measurement was set to 2 seconds.
Calculation of NFAT Signal Inhibitory Rate.
All of the NFAT transcription activity values (firefly luciferase activity) were corrected by dividing the values of the Renilla luciferase activity introduced for the transfection efficiency correction. Thereafter, the NFAT signal inhibitory rate was calculated by the following expression.
NFAT signal inhibitory rate (%)=100−(Test sample and ionomycin-added group−non-stimulation group)/(Ionomycin only-added group−non-stimulation group)×100

swine hair follicles = assay: Evaluation of hair shaft elongation by swine hair follicle organ culture; format: cell-based; conditions: isolated pig hair follicles cultured 8 days; solvent control (ethanol) taken as 100%; FIG. 6
Protocol: Evaluation of Hair Shaft Elongation by Swine Hair Follicle Organ Culture
The skin of buttocks of a pig for meat was separated into an appropriate size, and excess fatty tissue was removed. The pigskin was disinfected by immersing in a hibitane solution (5% hibitane solution (Dainippon Sumitomo Pharma Co., Ltd.) diluted to 5 to 20 times with water) for 5 minutes to 10 minutes under sterile conditions, and after that was washed several times with D-PBS. Subsequently, hair follicles were isolated from the washed pigskin under a stereoscopic microscope, and the hair follicles were collected in William's Medium E (Invitrogen) medium. […]
The component A and component B obtained in Example 1 were added to the above-mentioned medium, and the system was cultured for 8 days, together with an ethanol-added group, which was a solvent control. Stereomicroscopic images of the culture were captured on the day of culture initiation (zeroth day) and on the eighth day with a CCD camera (Pixera Model No. PVC 100C), and from those images, the length from the base of the hair bulb to the tip of the hair shaft was measured. Thereafter, the hair shaft elongation ratios of the component A and component B obtained in Example 1 were calculated, with the amount of hair shaft elongation of the solvent control group before and after culture being taken as 100%.

Structure (SMILES) | NFAT signal inhibitory rate (NFAT signal) | hair shaft elongation ratio (hair-growing effect) (swine hair follicles)
C/C=C(/C)C(=O)OC1c2c(ccc3ccc(=O)oc23)O[C@@H]1C(C)(C)OC(=O)C=C(C)C (stereo partly drawn) [component C, 3′-angeloyloxy-4′-senecioyloxy-2′,3′-dihydrooroselol] | inhibited the NFAT signal; also recorded: strong NFAT signal inhibitory activity | –
C/C=C(/C)C(=O)OC1c2c(ccc3ccc(=O)oc23)O[C@@H]1C(C)(C)OC(=O)/C(C)=C\C (stereo partly drawn) [component A, archangelicin] | inhibited the NFAT signal; also recorded: strong NFAT signal inhibitory activity | significant hair shaft elongation
C/C=C(/C)C(=O)OC1c2c(ccc3ccc(=O)oc23)OC1C(C)(C)OC(=O)CC(C)C (stereo not drawn) [component B, 3′-angeloyloxy-4′-isovaleryloxy-2′,3′-dihydrooroselol] | inhibited the NFAT signal; also recorded: strong NFAT signal inhibitory activity | significant hair shaft elongation
C/C=C(/C)C(=O)OC(C)(C)[C@H]1Oc2ccc3ccc(=O)oc3c2[C@H]1O [deacylation product of the component A, 3′-hydroxy-4′-angeloyloxy-2′,3′-dihydrooroselol] | inhibited the NFAT signal | –
